Reference: patent US9469650B2, “Melampomagnolide B derivatives” (BOARD OF TRUSTEES OF THE UNIVERSITY OF ARKANSAS, priority 2013, dated 2016)

Key:
K-562 = assay: panel of 60 human tumor cell lines, growth inhibition (Leukemia); conditions: K-562
MDA-MB-435 = assay: panel of 60 human tumor cell lines, growth inhibition (Melanoma); conditions: MDA-MB-435
SF-268 = assay: panel of 60 human tumor cell lines, growth inhibition (CNS Cancer); conditions: SF-268
SF-539 = assay: as above; conditions: SF-539
COLO 205 = assay: panel of 60 human tumor cell lines, growth inhibition (Colon Cancer); conditions: COLO 205
HCT-116 = assay: as above; conditions: HCT-116
SW-620 = assay: as above; conditions: SW-620
786-0 = assay: panel of 60 human tumor cell lines, growth inhibition (Renal Cancer); conditions: 786-0
ACHN = assay: as above
UO-31 = assay: as above; conditions: UO-31
HS 578T = assay: panel of 60 human tumor cell lines, growth inhibition (Breast Cancer); conditions: HS 578T
BT-549 = assay: as above; conditions: BT-549
T-47D = assay: as above; conditions: T-47D
IGROV1 = assay: panel of 60 human tumor cell lines, growth inhibition (Ovarian Cancer); conditions: IGROVI
OVCAR-5 = assay: as above; conditions: OVCAR-5
OVCAR-8 = assay: as above; conditions: OVCAR-8
NCI/ADR-RES = assay: as above
NCI-H522 = assay: panel of 60 human tumor cell lines, growth inhibition (Non-Small Cell Lung Cancer); conditions: NCI-H522

SMILES: C=C1C(=O)O[C@H]2[C@H]1CC/C(COC(=O)NCCO)=C\CC[C@@]1(C)O[C@@H]21 [JVM 2-50]
- Percent Growth (K-562; Log10 Concentration −4.0): −25%
- Percent Growth (K-562; Log10 Concentration −5.0): 23%
- Percent Growth (K-562; Log10 Concentration −6.0): 100%
- Percent Growth (K-562; Log10 Concentration −7.0): 110%
- Percent Growth (K-562; Log10 Concentration −8.0): 119%
- GI50 (K-562; NCI five dose): 4.51 µM
- TGI (K-562; NCI five dose): 3.02E−5
- Percent Growth (MDA-MB-435; Log10 Concentration −4.0): −84%
- Percent Growth (MDA-MB-435; Log10 Concentration −5.0): 40%
- Percent Growth (MDA-MB-435; Log10 Concentration −6.0): 91%
- Percent Growth (MDA-MB-435; Log10 Concentration −7.0): 96%
- Percent Growth (MDA-MB-435; Log10 Concentration −8.0): 91%
- GI50 (MDA-MB-435; NCI five dose): 6.37 µM
- TGI (MDA-MB-435; NCI five dose): 2.10E−5
- Percent Growth (SF-268; Log10 Concentration −4.0): −51%
- Percent Growth (SF-268; Log10 Concentration −5.0): 90%
- Percent Growth (SF-268; Log10 Concentration −6.0): 100%
- Percent Growth (SF-268; Log10 Concentration −7.0): 99%
- Percent Growth (SF-268; Log10 Concentration −8.0): 99%
- GI50 (SF-268; NCI five dose): 19.3 µM
- TGI (SF-268; NCI five dose): 4.38E−5
- Percent Growth (SF-539; Log10 Concentration −4.0): −85%
- Percent Growth (SF-539; Log10 Concentration −5.0): 54%
- Percent Growth (SF-539; Log10 Concentration −6.0): 93%
- Percent Growth (SF-539; Log10 Concentration −7.0): 95%
- Percent Growth (SF-539; Log10 Concentration −8.0): 95%
- GI50 (SF-539; NCI five dose): 10.8 µM
- TGI (SF-539; NCI five dose): 2.46E−5
- Percent Growth (COLO 205; Log10 Concentration −4.0): −80%
- Percent Growth (COLO 205; Log10 Concentration −5.0): 21%
- Percent Growth (COLO 205; Log10 Concentration −6.0): 108%
- Percent Growth (COLO 205; Log10 Concentration −7.0): 106%
- Percent Growth (COLO 205; Log10 Concentration −8.0): 96%
- GI50 (COLO 205; NCI five dose): 4.87 µM
- TGI (COLO 205; NCI five dose): 1.62E−5
- Percent Growth (HCT-116; Log10 Concentration −4.0): −75%
- Percent Growth (HCT-116; Log10 Concentration −5.0): 15%
- Percent Growth (HCT-116; Log10 Concentration −6.0): 90%
- Percent Growth (HCT-116; Log10 Concentration −7.0): 96%
- Percent Growth (HCT-116; Log10 Concentration −8.0): 93%
- GI50 (HCT-116; NCI five dose): 3.43 µM
- TGI (HCT-116; NCI five dose): 1.48E−5
- CC50 (HCT-116; read-out: LC50, NCI five dose): 53.2 µM
- Percent Growth (SW-620; Log10 Concentration −4.0): −71%
- Percent Growth (SW-620; Log10 Concentration −5.0): 93%
- Percent Growth (SW-620; Log10 Concentration −6.0): 101%
- Percent Growth (SW-620; Log10 Concentration −7.0): 104%
- Percent Growth (SW-620; Log10 Concentration −8.0): 102%
- GI50 (SW-620; NCI five dose): 18.2 µM
- TGI (SW-620; NCI five dose): 3.67E−5
- Percent Growth (786-0; Log10 Concentration −4.0): −74%
- Percent Growth (786-0; Log10 Concentration −5.0): 59%
- Percent Growth (786-0; Log10 Concentration −6.0): 97%
- Percent Growth (786-0; Log10 Concentration −7.0): 97%
- Percent Growth (786-0; Log10 Concentration −8.0): 91%
- GI50 (786-0; NCI five dose): 11.7 µM
- TGI (786-0; NCI five dose): 2.78E−5
- Percent Growth (ACHN; Log10 Concentration −4.0): 84%
- Percent Growth (ACHN; Log10 Concentration −5.0): 43%
- Percent Growth (ACHN; Log10 Concentration −6.0): 99%
- Percent Growth (ACHN; Log10 Concentration −7.0): 101%
- Percent Growth (ACHN; Log10 Concentration −8.0): 96%
- GI50 (ACHN; NCI five dose): 7.44 µM
- TGI (ACHN; NCI five dose): 2.52E−5
- Percent Growth (UO-31; Log10 Concentration −4.0): −65%
- Percent Growth (UO-31; Log10 Concentration −5.0): 67%
- Percent Growth (UO-31; Log10 Concentration −6.0): 96%
- Percent Growth (UO-31; Log10 Concentration −7.0): 99%
- Percent Growth (UO-31; Log10 Concentration −8.0): 95%
- GI50 (UO-31; NCI five dose): 13.5 µM
- TGI (UO-31; NCI five dose): 3.23E−5
- Percent Growth (HS 578T; Log10 Concentration −4.0): 22%
- Percent Growth (HS 578T; Log10 Concentration −5.0): 82%
- Percent Growth (HS 578T; Log10 Concentration −6.0): 91%
- Percent Growth (HS 578T; Log10 Concentration −7.0): 88%
- Percent Growth (HS 578T; Log10 Concentration −8.0): 92%
- GI50 (HS 578T; NCI five dose): 34.3 µM
- TGI (HS 578T; NCI five dose): >1.00E−4
- Percent Growth (BT-549; Log10 Concentration −4.0): −91%
- Percent Growth (BT-549; Log10 Concentration −5.0): 21%
- Percent Growth (BT-549; Log10 Concentration −6.0): 83%
- Percent Growth (BT-549; Log10 Concentration −7.0): 91%
- Percent Growth (BT-549; Log10 Concentration −8.0): 85%
- GI50 (BT-549; NCI five dose): 3.26 µM
- TGI (BT-549; NCI five dose): 1.53E−5
- Percent Growth (T-47D; Log10 Concentration −4.0): −54%
- Percent Growth (T-47D; Log10 Concentration −5.0): 16%
- Percent Growth (T-47D; Log10 Concentration −6.0): 69%
- Percent Growth (T-47D; Log10 Concentration −7.0): 95%
- Percent Growth (T-47D; Log10 Concentration −8.0): 89%
- GI50 (T-47D; NCI five dose): 3.46 µM
- TGI (T-47D; NCI five dose): 1.71E−5
- Percent Growth (IGROV1; Log10 Concentration −4.0): −36%
- Percent Growth (IGROV1; Log10 Concentration −5.0): 49%
- Percent Growth (IGROV1; Log10 Concentration −6.0): 109%
- Percent Growth (IGROV1; Log10 Concentration −7.0): 106%
- Percent Growth (IGROV1; Log10 Concentration −8.0): 95%
- GI50 (IGROV1; NCI five dose): 9.79 µM
- TGI (IGROV1; NCI five dose): 1.80E−5
- Percent Growth (OVCAR-5; Log10 Concentration −4.0): −54%
- Percent Growth (OVCAR-5; Log10 Concentration −5.0): 68%
- Percent Growth (OVCAR-5; Log10 Concentration −6.0): 85%
- Percent Growth (OVCAR-5; Log10 Concentration −7.0): 91%
- Percent Growth (OVCAR-5; Log10 Concentration −8.0): 89%
- GI50 (OVCAR-5; NCI five dose): 14 µM
- TGI (OVCAR-5; NCI five dose): 1.59E−5
- Percent Growth (OVCAR-8; Log10 Concentration −4.0): −25%
- Percent Growth (OVCAR-8; Log10 Concentration −5.0): 62%
- Percent Growth (OVCAR-8; Log10 Concentration −6.0): 97%
- Percent Growth (OVCAR-8; Log10 Concentration −7.0): 96%
- Percent Growth (OVCAR-8; Log10 Concentration −8.0): 98%
- GI50 (OVCAR-8; NCI five dose): 13.7 µM
- TGI (OVCAR-8; NCI five dose): 5.15E−5
- Percent Growth (NCI/ADR-RES; Log10 Concentration −4.0): 16%
- Percent Growth (NCI/ADR-RES; Log10 Concentration −5.0): 105%
- Percent Growth (NCI/ADR-RES; Log10 Concentration −6.0): 106%
- Percent Growth (NCI/ADR-RES; Log10 Concentration −7.0): 113%
- Percent Growth (NCI/ADR-RES; Log10 Concentration −8.0): 108%
- GI50 (NCI/ADR-RES; NCI five dose): 41.5 µM
- TGI (NCI/ADR-RES; NCI five dose): >1.00E−4
- Percent Growth (NCI-H522; Log10 Concentration −4.0): −69%
- Percent Growth (NCI-H522; Log10 Concentration −5.0): −56%
- Percent Growth (NCI-H522; Log10 Concentration −6.0): 97%
- Percent Growth (NCI-H522; Log10 Concentration −7.0): 104%
- Percent Growth (NCI-H522; Log10 Concentration −8.0): 98%
- GI50 (NCI-H522; NCI five dose): 2.03 µM
- TGI (NCI-H522; NCI five dose): 4.30E−6
